In US20260109690A1, “HDAC6 INHIBITORS AND METHOD OF THEIR USE” (Baerenkraft Therapeutics, LLC., priority 2024, published 2026):
Counter-ions that a name gives are not always drawn.

What follows are molecules tested against T1, HDAC6 (Homo sapiens, UniProt Q9UBN7) (assay: Biochemical HDAC6 inhibitory activity assay). Settings: 10-dose IC50 mode, in singlet, 3-fold serial dilution starting at 1 μM; read-out: HDAC6 IC50.
T1 sequence (Q9UBN7 1-1215): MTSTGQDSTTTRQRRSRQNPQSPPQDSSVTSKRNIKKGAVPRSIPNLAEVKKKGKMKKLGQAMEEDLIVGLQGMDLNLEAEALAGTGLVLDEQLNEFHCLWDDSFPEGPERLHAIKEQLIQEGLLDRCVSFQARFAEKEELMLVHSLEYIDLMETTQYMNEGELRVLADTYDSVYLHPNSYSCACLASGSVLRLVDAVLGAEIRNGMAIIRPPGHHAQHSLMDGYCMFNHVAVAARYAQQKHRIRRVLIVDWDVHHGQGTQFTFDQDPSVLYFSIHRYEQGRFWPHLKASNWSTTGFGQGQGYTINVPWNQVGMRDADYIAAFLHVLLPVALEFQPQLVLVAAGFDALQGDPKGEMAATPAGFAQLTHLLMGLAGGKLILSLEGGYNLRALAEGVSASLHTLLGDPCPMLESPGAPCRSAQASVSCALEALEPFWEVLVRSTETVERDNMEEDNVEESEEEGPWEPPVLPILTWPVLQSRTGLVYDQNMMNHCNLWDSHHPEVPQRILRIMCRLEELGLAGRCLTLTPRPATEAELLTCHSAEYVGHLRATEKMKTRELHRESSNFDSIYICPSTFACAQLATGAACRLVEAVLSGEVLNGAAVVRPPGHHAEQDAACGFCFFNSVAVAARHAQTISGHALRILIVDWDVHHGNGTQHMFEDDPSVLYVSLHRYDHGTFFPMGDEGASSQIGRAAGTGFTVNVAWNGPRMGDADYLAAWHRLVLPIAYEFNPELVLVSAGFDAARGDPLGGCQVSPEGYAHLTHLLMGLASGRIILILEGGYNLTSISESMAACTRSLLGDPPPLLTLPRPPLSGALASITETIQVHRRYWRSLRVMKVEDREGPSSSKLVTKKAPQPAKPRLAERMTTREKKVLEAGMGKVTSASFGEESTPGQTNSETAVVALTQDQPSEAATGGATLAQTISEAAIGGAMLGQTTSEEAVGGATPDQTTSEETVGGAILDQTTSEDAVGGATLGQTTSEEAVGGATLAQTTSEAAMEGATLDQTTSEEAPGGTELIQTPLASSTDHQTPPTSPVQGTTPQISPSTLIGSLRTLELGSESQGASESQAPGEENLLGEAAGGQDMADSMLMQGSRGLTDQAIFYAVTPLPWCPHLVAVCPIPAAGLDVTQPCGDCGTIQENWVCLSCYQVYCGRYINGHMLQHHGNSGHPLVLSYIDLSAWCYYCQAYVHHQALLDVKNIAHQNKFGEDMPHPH

Row | SMILES | IC50 [µM]
1 | C[C@H]1CN(Cc2ccc(Nc3nccc(-c4ccc(C(=O)NO)cc4)n3)cc2F)CCO1 [Compound I-15, (S)-4-(2-((3-fluoro-4-((2-methylmorpholino)methyl)phenyl)amino)pyrimidin-4-yl)-N-hydroxybenzamide] | 0.016

Same assay, conditions: read-out: HDAC6 IC50

Row | SMILES | IC50 [µM]
2 | O=C(NO)c1ccc(-c2ccnc(Nc3ccc(C(=O)N4CCOCC4)c(F)c3)n2)cc1 [Compound I-1, 4-(2-((3-fluoro-4-(morpholine-4-carbonyl)phenyl)amino)pyrimidin-4-yl)-N-hydroxybenzamide] | < 1
3 | N#CNC(=O)c1ccc(-c2ccnc(Nc3ccc(C(=O)N4CCOCC4)c(F)c3)n2)cc1 [Compound I-2, N-cyano-4-(2-((3-fluoro-4-(morpholine-4-carbonyl)phenyl)amino)pyrimidin-4-yl)benzamide] | > 100
4 | CC1CCN(C(=O)c2ccc(Nc3nccc(-c4ccc(C(=O)NO)cc4)n3)cc2F)CC1 [Compound I-3, 4-(2-((3-fluoro-4-(4-methylpiperidine-1-carbonyl)phenyl)amino)pyrimidin-4-yl)-N-hydroxybenzamide] | < 1
5 | CN1CCN(C(=O)c2ccc(Nc3nccc(-c4ccc(C(=O)NO)cc4)n3)cc2F)CC1 [Compound I-4, 4-(2-((3-fluoro-4-(4-methylpiperazine-1-carbonyl)phenyl)amino)pyrimidin-4-yl)-N-hydroxybenzamide] | < 1
6 | CC1CCN(Cc2ccc(Nc3nccc(-c4ccc(C(=O)NO)cc4)n3)cc2F)CC1 [Compound I-6, 4-(2-((3-fluoro-4-((4-methylpiperidin-1-yl)methyl)phenyl)amino)pyrimidin-4-yl)-N-hydroxybenzamide] | < 1
7 | CC(c1ccc(Nc2nccc(-c3ccc(C(=O)NO)cc3)n2)cc1F)N1CCN(C)CC1 (stereo not drawn) [Compound I-10, 4-(2-((3-fluoro-4-(1-(4-methylpiperazin-1-yl)ethyl)phenyl)amino)pyrimidin-4-yl)-N-hydroxybenzamide] | < 1
8 | CC1CN(c2ccc(Nc3nccc(-c4ccc(C(=O)NO)cc4)n3)cc2F)CCO1 (stereo not drawn) [Compound I-11, 4-(2-((3-fluoro-4-(2-methylmorpholino)phenyl)amino)pyrimidin-4-yl)-N-hydroxybenzamide] | < 1
9 | Cc1cc(-c2ccnc(Nc3ccc(N4CCOC(C)C4)c(F)c3)n2)ccc1C(=O)NO (stereo not drawn) [Compound I-12, 4-(2-((3-fluoro-4-(2-methylmorpholino)phenyl)amino)pyrimidin-4-yl)-N-hydroxy-2-methylbenzamide] | 1 to 10
10 | CC1CN(C(C)c2ccc(Nc3nccc(-c4ccc(C(=O)NO)cc4)n3)cc2F)CCO1 (stereo not drawn) [Compound I-13, 4-(2-((3-fluoro-4-(1-(2-methylmorpholino)ethyl)phenyl)amino)pyrimidin-4-yl)-N-hydroxybenzamide] | < 1
11 | CC1CN(CC(=O)Nc2nccc(-c3ccc(C(=O)NO)cc3)n2)CCO1 (stereo not drawn) [Compound I-14, N-hydroxy-4-(2-(2-(2-methylmorpholino)acetamido)pyrimidin-4-yl)benzamide] | < 1
12 | C[C@H]1CN(Cc2ccc(Nc3nccc(-c4ccc(C(=O)NO)cc4)n3)cc2F)CCO1 [Compound I-15, (S)-4-(2-((3-fluoro-4-((2-methylmorpholino)methyl)phenyl)amino)pyrimidin-4-yl)-N-hydroxybenzamide] | < 1
13 | O=C(NO)c1ccc(-c2nc(Nc3ccc(C(=O)N4CCOCC4)c(F)c3)ncc2Cl)cc1 [Compound I-17, 4-(5-chloro-2-((3-fluoro-4-(morpholine-4-carbonyl)phenyl)amino)pyrimidin-4-yl)-N-hydroxybenzamide] | < 1
14 | CCNNC(=O)c1ccc(-c2ccnc(Nc3ccc(C(=O)N4CCOCC4)c(F)c3)n2)cc1 [Compound I-18, N′-ethyl-4-(2-((3-fluoro-4-(morpholine-4-carbonyl)phenyl)amino)pyrimidin-4-yl)benzohydrazide] | < 1
15 | CCNNC(=O)c1ccc(-c2ccnc(Nc3ccc(C(=O)N4CCOCC4)cc3)n2)cc1 [Compound I-19, N′-ethyl-4-(2-((4-(morpholine-4-carbonyl)phenyl)amino)pyrimidin-4-yl)benzohydrazide] | < 1
16 | CCNNC(=O)c1ccc(-c2ccnc(NC(=O)N3CCOCC3)n2)cc1 [Compound I-20, N-(4-(4-(2-ethylhydrazine-1-carbonyl)phenyl)pyrimidin-2-yl)morpholine-4-carboxamide] | 1 to 10
17 | CCNNC(=O)c1ccc(-c2ccnc(N3CCOCC3)n2)cc1 [Compound I-21, N′-ethyl-4-(2-morpholinopyrimidin-4-yl)benzohydrazide] | < 1
18 | CCNNC(=O)c1ccc(-c2nc(N3CCOCC3)ncc2Cl)cc1 [Compound I-22, 4-(5-chloro-2-morpholinopyrimidin-4-yl)-N′-ethylbenzohydrazide] | > 100
19 | CCNNC(=O)c1ccc(-c2ccnc(N3CCC4(CC3)COC4)n2)cc1 [Compound I-23, 4-(2-(2-oxa-7-azaspiro[3.5]nonan-7-yl)pyrimidin-4-yl)-N′-ethylbenzohydrazide] | < 1
20 | CCNNC(=O)c1ccc(-c2nc(N3CCC4(CC3)COC4)ncc2Cl)cc1 [Compound I-24, 4-(5-chloro-2-(2-oxa-7-azaspiro[3.5]nonan-7-yl)pyrimidin-4-yl)-N′-ethylbenzohydrazide] | > 100
21 | C[C@H]1CN(Cc2ccc(Nc3nccc(-c4ccc(-c5nnc(C(F)F)o5)cc4)n3)cc2F)CCO1 [Compound I-30, (S)-4-(4-(5-(difluoromethyl)-1,3,4-oxadiazol-2-yl)phenyl)-N-(3-fluoro-4-((2-methylmorpholino)methyl)phenyl)pyrimidin-2-amine] | 1 to 10
22 | C[C@H]1CN(Cc2ccc(Nc3nccc(-c4ccc(-c5nnc(C(F)F)o5)cc4F)n3)cc2F)CCO1 [Compound I-31, (S)-4-(4-(5-(difluoromethyl)-1,3,4-oxadiazol-2-yl)-2-fluorophenyl)-N-(3-fluoro-4-((2-methylmorpholino)methyl)phenyl)pyrimidin-2-amine] | < 1
23 | C[C@@H]1CN(Cc2ccc(Nc3nccc(-c4ccc(-c5nnc(C(F)F)o5)cc4)n3)cc2F)CCO1 [Compound I-32, (R)-4-(4-(5-(difluoromethyl)-1,3,4-oxadiazol-2-yl)phenyl)-N-(3-fluoro-4-((2-methylmorpholino)methyl)phenyl)pyrimidin-2-amine TFA salt] | 1 to 10
24 | C[C@@H]1CN(Cc2ccc(Nc3nccc(-c4ccc(-c5nnc(C(F)F)o5)cc4F)n3)cc2F)CCO1 [Compound I-33, (R)-4-(4-(5-(difluoromethyl)-1,3,4-oxadiazol-2-yl)-2-fluorophenyl)-N-(3-fluoro-4-((2-methylmorpholino)methyl)phenyl)pyrimidin-2-amine] | < 1
25 | C[C@H]1CN(Cc2ccc(Nc3nccc(-c4ccc(-c5nnc(C(F)F)o5)cn4)n3)cc2F)CCO1 [Compound I-34, (S)-4-(5-(5-(difluoromethyl)-1,3,4-oxadiazol-2-yl)pyridin-2-yl)-N-(3-fluoro-4-((2-methylmorpholino)methyl)phenyl)pyrimidin-2-amine] | 1 to 10
26 | C[C@@H]1CN(Cc2ccc(Nc3nccc(-c4ccc(-c5nnc(C(F)F)o5)cn4)n3)cc2F)CCO1 [Compound I-35, (R)-4-(5-(5-(difluoromethyl)-1,3,4-oxadiazol-2-yl)pyridin-2-yl)-N-(3-fluoro-4-((2-methylmorpholino)methyl)phenyl)pyrimidin-2-amine] | 10 to 35
27 | C[C@H]1CN(Cc2ccc(-c3ccnc(Nc4ccc(-c5nnc(C(F)F)o5)cc4F)n3)c(F)c2)CCO1 [Compound I-36, (S)-N-(4-(5-(difluoromethyl)-1,3,4-oxadiazol-2-yl)-2-fluorophenyl)-4-(2-fluoro-4-((2-methylmorpholino)methyl)phenyl)pyrimidin-2-amine] | 1 to 10
28 | C[C@H]1CN(c2ccc(Nc3nccc(-c4ccc(-c5nnc(C(F)F)o5)cn4)n3)cc2F)CCO1 [Compound I-38, (S)-4-(5-(5-(difluoromethyl)-1,3,4-oxadiazol-2-yl)pyridin-2-yl)-N-(3-fluoro-4-(2-methylmorpholino)phenyl)pyrimidin-2-amine] | 1 to 10
29 | C[C@@H]1CN(c2ccc(Nc3nccc(-c4ccc(-c5nnc(C(F)F)o5)cn4)n3)cc2F)CCO1 [Compound I-39, (R)-4-(5-(5-(difluoromethyl)-1,3,4-oxadiazol-2-yl)pyridin-2-yl)-N-(3-fluoro-4-(2-methylmorpholino)phenyl)pyrimidin-2-amine] | 1 to 10
30 | Fc1cc(Nc2nccc(-c3ccc(-c4nnc(C(F)F)o4)cn3)n2)ccc1N1CCOCC1 [Compound I-40, 4-(5-(5-(difluoromethyl)-1,3,4-oxadiazol-2-yl)pyridin-2-yl)-N-(3-fluoro-4-morpholinophenyl)pyrimidin-2-amine] | 1 to 10
